# Test results: ChEMBL document CHEMBL1127931, “Design and synthesis of a prototypical non-peptidic inhibitor model for the enzme renin” (Bioorg Med Chem Lett, 1994)
# Target: T1, Renin (Homo sapiens, UniProt P00797)
# T1 sequence (P00797 whole entry): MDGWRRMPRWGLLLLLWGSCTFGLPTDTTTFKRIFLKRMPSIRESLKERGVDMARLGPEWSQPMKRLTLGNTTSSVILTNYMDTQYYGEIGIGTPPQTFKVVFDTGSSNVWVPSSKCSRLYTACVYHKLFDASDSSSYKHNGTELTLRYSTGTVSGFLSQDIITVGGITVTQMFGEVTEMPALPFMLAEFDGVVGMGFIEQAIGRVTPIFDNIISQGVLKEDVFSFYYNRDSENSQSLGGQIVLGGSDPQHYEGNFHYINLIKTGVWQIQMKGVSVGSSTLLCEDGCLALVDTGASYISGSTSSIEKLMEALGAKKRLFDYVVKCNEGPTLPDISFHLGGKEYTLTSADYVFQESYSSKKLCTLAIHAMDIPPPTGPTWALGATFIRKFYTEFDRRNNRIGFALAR
# Experiment: Binding affinity towards human renin was determined
row,IC50 [µM],SMILES
1,> 100,CCCCNC(=O)[C@H](C)C[C@H](O)[C@H](C[C@@H](C)Cc1ccccc1)NC(=O)OC(C)(C)C
2,> 100,CCCCNC(=O)[C@H](C)C[C@H](O)C1C[C@@H](C)[C@@H](c2ccccc2)N1C(=O)OC(C)(C)C (some centres undefined)
3,> 100,CCCCNC(=O)[C@H](C)C[C@H](O)[C@@H]1C[C@@H](C)[C@@H](c2ccccc2)N1C(=O)OCc1ccccc1
4,37,CCCCNC(=O)[C@H](C)C[C@H](O)[C@@H](N)C[C@@H](C)Cc1ccccc1
